Test results taken from US7989018B2, “Fluid treatment of a polymeric coating on an implantable medical device” (Advanced Cardiovascular Systems, Inc., priority 2001, dated 2011).

Key:
[1] = Release of 40-O-(2-hydroxy)ethyl-rapamycin from a standard polymeric coating in release media; assay type: physicochemical; conditions: in about 24 hours, certain release media
[2] = Drug release from stent coatings, Vankel Bio-Dis release rate tester, HPLC; assay type: physicochemical; conditions: fluid-treated coating, Example 3
Experimental: The drug-coated stents were placed on stent holders of a Vankel Bio-Dis release rate tester (Vankel, Inc., Cary, N.C.). 3 stents from each test group were dipped into an artificial medium for about 1 hour to extract the 40-O-(2-hydroxy)ethyl-rapamycin from the stent coatings. The artificial medium included phosphate buffer saline solution (10 mM, pH 7.4) and 1% TRITON X-100 Sigma Corporation) which stabilizes the 40-O-(2-hydroxy)ethyl-rapamycin in the testing solution. Each stent was tested in a separate testing solution to prevent cross-contamination. After extraction, each of the solutions was separately analyzed for the amount of drug released from the stent coatings by high pressure liquid chromatography (HPLC). The HPLC system consisted of a Waters 2690 system. After the drug solutions were analyzed by HPLC, the results were quantified by comparing the release rate results with a reference standard.
Each of the stents was then dipped in fresh extraction solutions for another 6 hours (7 hours total). The solutions were analyzed by HPLC as described above. […] The solutions were again analyzed by HPLC as described above.
The drug release profile could then be generated by plotting cumulative drug released in the medium vs. time. The percentage of drug released at a specific time was determined by comparing the cumulative drug released with the total content data. […]

CO[C@H]1C[C@@H]2CC[C@@H](C)[C@@](O)(O2)C(=O)C(=O)N2CCCC[C@H]2C(=O)O[C@H]([C@H](C)C[C@@H]2CC[C@@H](OCCO)[C@H](OC)C2)CC(=O)[C@H](C)/C=C(\C)[C@@H](O)[C@@H](OC)C(=O)[C@H](C)C[C@H](C)/C=C/C=C/C=C/1C [40-O-(2-hydroxy)ethyl-rapamycin]
release rate from a standard polymeric coating [1]: greater than 50% | decrease of release rate as compared to a control group [2]: about 50%
